PubChem BioAssay AID312 (DTP/NCI, 2004)
Where “and” joins values, the source holds several entries; their conditions need not be identical. Identical values can stand only once. Inconclusive results and toxic doses are left out.

System: BDF1 mice, C1498 leukemia ip, median survival T/C
Experiment: NCI In Vivo Anticancer Drug Screen. Data for tumor model C1498 Myeloid Leukemia (intraperitoneal) in B6D2F1 (BDF1) mice
Conditions: endpoint: median survival time, higher = longer survival
Description: The antitumor activity of compounds was measured in mice bearing transplantable tumors. Survival or tumor size were measured and the results are expressed as the measurement made in the treated group (T) divided by the measurement made in the vehicle treated control group (C). The tumor model used in this assay is C1498 Myeloid Leukemia (intraperitoneal) in B6D2F1 (BDF1) mice

[1] = dose: 37.5 mg/kg/injection, schedule: Q01DX010 (ip), vehicle: saline
[2] = dose: 75.0 mg/kg/injection, schedule: Q01DX010 (ip), vehicle: saline
[3] = dose: 150.0 mg/kg/injection, schedule: Q01DX010 (ip), vehicle: saline
[4] = dose: 125.0 mg/kg/injection, schedule: Q01DX010 (ip), vehicle: saline
[5] = dose: 250.0 mg/kg/injection, schedule: Q01DX010 (ip), vehicle: saline
[6] = dose: 5.0 mg/kg/injection, schedule: Q01DX010 (ip), vehicle: saline
[7] = dose: 10.0 mg/kg/injection, schedule: Q01DX010 (ip), vehicle: saline
[8] = dose: 20.0 mg/kg/injection, schedule: Q01DX010 (ip), vehicle: saline
[9] = dose: 40.0 mg/kg/injection, schedule: Q01DX010 (ip), vehicle: saline
[10] = dose: 25.0 mg/kg/injection, schedule: Q01DX010 (ip), vehicle: saline
[11] = dose: 50.0 mg/kg/injection, schedule: Q01DX010 (ip), vehicle: saline
[12] = dose: 8.0 mg/kg/injection, schedule: Q01DX010 (ip), vehicle: saline

In the case of CO[C@@H]1[C@@H](OC2OC(C)C(OC3CC(C)(O)C(OC(=O)CC(C)C)C(C)O3)C(N(C)C)C2O)[C@@H](CC=O)C[C@@H](C)C(=O)/C=C/C2O[C@H]2C[C@@H](C)OC(=O)C[C@H]1OC(C)=O (some centres undefined), the T/C [1] is reported as 109 % of control and 91 % of control, the T/C [2] is reported as 100 % of control and 91 % of control and the T/C [3] is reported as 95 % of control and 90 % of control. The T/C (dose: 300.0 mg/kg/injection, schedule: Q01DX010 (ip), vehicle: saline) was 91 % of control and 90 % of control.
For CN(Cc1cnc2nc(N)nc(N)c2n1)c1ccc(C(=O)N[C@@H](CCC(=O)O)C(=O)O)cc1, the T/C (dose: 1.5 mg/kg/injection, schedule: Q01DX009 (ip), vehicle: sodium bicarbonate) was 110 % of control and the T/C (dose: 2.0 mg/kg/injection, schedule: Q01DX009 (ip), vehicle: sodium bicarbonate) was 124 % of control.
CCN(CCNc1ccc(C)c2sc3cc(Cl)ccc3c(=O)c12)CC(C)O (centres undefined) was tested, and the T/C (dose: 31.3 mg/kg/injection, schedule: Q01DX010 (ip), vehicle: saline) was 86 % of control, the T/C (dose: 62.5 mg/kg/injection, schedule: Q01DX010 (ip), vehicle: saline) was 104 % of control and 90 % of control and the T/C [4] was 95 % of control and 86 % of control. For the same compound, the T/C [5] was 86 % of control.
CN(C)c1ccc(/C=C/c2ccnc3ccccc23)cc1 was tested, and the T/C [6] was 100 % of control, the T/C [7] was 100 % of control and 104 % of control and the T/C [8] was 95 % of control and 100 % of control. The T/C [9] was 95 % of control and 109 % of control.
For Cc1cc2nc3c(=O)[nH]c(=O)nc-3n(CC(O)C(O)C(O)C(O)CO)c2cc1C (centres undefined), the T/C [10] was 100 % of control, the T/C [11] was 100 % of control and the T/C (dose: 100.0 mg/kg/injection, schedule: Q01DX010 (ip), vehicle: saline) was 95 % of control. For the same compound, the T/C (dose: 200.0 mg/kg/injection, schedule: Q01DX010 (ip), vehicle: saline) was 91 % of control and the T/C (dose: 400.0 mg/kg/injection, schedule: Q01DX010 (ip), vehicle: saline) was 87 % of control.
In the case of C1CN1c1nc(N2CC2)nc(N2CC2)n1, the T/C (dose: 0.25 mg/kg/injection, schedule: Q01DX010 (ip), vehicle: saline) is reported as 110 % of control and the T/C (dose: 0.5 mg/kg/injection, schedule: Q01DX010 (ip), vehicle: saline) is reported as 110 % of control.
For CCOC(N)=O, the T/C [4] was 95 % of control and 104 % of control, the T/C [5] was 95 % of control and 100 % of control and the T/C (dose: 500.0 mg/kg/injection, schedule: Q01DX010 (ip), vehicle: saline) was 95 % of control and 109 % of control.
With COc1cccc2c1C(=O)c1c(O)c3c(c(O)c1C2=O)C[C@@](O)(C(C)=O)C[C@@H]3OC1CC(N)C(O)C(C)O1 (some centres undefined) the T/C (dose: 1.25 mg/kg/injection, schedule: Q01DX010 (ip), vehicle: other) was 107 % of control and 115 % of control, the T/C (dose: 2.5 mg/kg/injection, schedule: Q01DX010 (ip), vehicle: other) was 92 % of control and 111 % of control and the T/C (dose: 156.0 micrograms/kg/injection, schedule: Q01DX010 (ip), vehicle: saline) was 118 % of control. The T/C (dose: 313.0 micrograms/kg/injection, schedule: Q01DX010 (ip), vehicle: saline) was 118 % of control.
O=C(Nc1ccc(C2=NCCN2)cc1)c1ccc(C(=O)Nc2ccc(C3=NCCN3)cc2)c([N+](=O)[O-])c1 was tested, and the T/C (dose: 6.0 mg/kg/injection, schedule: Q01DX010 (ip), vehicle: saline) was 96 % of control and 119 % of control, the T/C [12] was 100 % of control and the T/C (dose: 18.0 mg/kg/injection, schedule: Q01DX010 (ip), vehicle: saline) was 103 % of control.
In the case of CC(CCC(C)OS(C)(=O)=O)OS(C)(=O)=O (centres undefined), the T/C (dose: 4.0 mg/kg/injection, schedule: Q01DX010 (ip), vehicle: saline) is reported as 109 % of control, the T/C [12] is reported as 95 % of control and the T/C (dose: 16.0 mg/kg/injection, schedule: Q01DX010 (ip), vehicle: saline) is reported as 100 % of control. The T/C (dose: 32.0 mg/kg/injection, schedule: Q01DX010 (ip), vehicle: saline) was 104 % of control.
In the case of O=C(O)c1[nH]c(=O)[nH]c(=O)c1F, the T/C (dose: 1.25 mg/kg/injection, schedule: Q01DX010 (ip), vehicle: saline) is reported as 116 % of control and 118 % of control, the T/C (dose: 2.5 mg/kg/injection, schedule: Q01DX010 (ip), vehicle: saline) is reported as 122 % of control and the T/C [6] is reported as 158 % of control and 163 % of control. For the same compound, the T/C [7] was 95 % of control and 109 % of control.
For COc1cc(-c2ccc(Nc3ccccc3C(=O)O)c(OC)c2)ccc1N, the T/C [6] was 100 % of control, the T/C [7] was 95 % of control and 100 % of control and the T/C [8] was 100 % of control and 105 % of control. The T/C [9] was 118 % of control.
For O=c1c(O)cccc2cc(O)c(O)c(O)c12, the T/C [10] was 90 % of control and the T/C [11] was 100 % of control.
CN(C)c1nc(N(C)C)nc(N(C)C)n1 was tested, and the T/C (dose: 18.8 mg/kg/injection, schedule: Q01DX010 (ip), vehicle: saline) was 100 % of control and 109 % of control, the T/C [1] was 104 % of control and 118 % of control and the T/C [2] was 100 % of control and 109 % of control. For the same compound, the T/C [3] was 109 % of control and 118 % of control.
With COc1cc2c(c3c1c(=O)c1ccccc1n3C)C=CC(C)(C)O2 the T/C (dose: 6.25 mg/kg/injection, schedule: Q01DX010 (ip), vehicle: other) was 100 % of control, the T/C (dose: 12.5 mg/kg/injection, schedule: Q01DX010 (ip), vehicle: other) was 107 % of control and the T/C (dose: 25.0 mg/kg/injection, schedule: Q01DX010 (ip), vehicle: other) was 103 % of control. For the same compound, the T/C (dose: 50.0 mg/kg/injection, schedule: Q01DX010 (ip), vehicle: other) was 119 % of control and the T/C (dose: 100.0 mg/kg/injection, schedule: Q01DX010 (ip), vehicle: other) was 100 % of control.
